This is an account of results in paper PMC8872362, “Balanced Polymorphism at the Pgm-1 Locus of the Pompeii Worm Alvinella pompejana and Its Variant Adaptability Is Only Governed by Two QE Mutations at Linked Sites” (Genes, 2022).

Each structure is given as a SMILES string. Where two headings read alike, the source gives them in different places.

For this experiment, the system named is PGM-1 (recombinant isoform PGM100, E155 E190). The experiment is described as follows: G6PD-coupled NADPH assay, Lineweaver-Burk. Format: biochemical, Alvinella pompejana. The settings on record: 50 mM Tris-HCl pH 7.4, 0.5 M MgCl2 (so in the source), 1.2 mM NADP, 0.1 µM G6PD, G1P 0.2-60 mM, 17 °C. An excerpt:
G6PD-coupled NADPH assay, Lineweaver-Burk on PGM-1 (recombinant isoform PGM100, E155 E190)

Regarding `O=P(O)(O)O[C@H]1O[C@H](CO)[C@@H](O)[C@H](O)[C@H]1O` [G1P, α-D-glucose 1-phosphate], the Km turned out to be 0.76 ± 0.07 mM (PGM78, natural allele QE, read-out: PGM 78 / 1st Transition); 6.25 ± 0.35 mM (PGM90, natural allele EQ, read-out: PGM 90 / 1st Transition); 5.22 ± 0.74 mM (read-out: PGM 100 / 1st Transition).
